Patent US20100137344A1, “INDUCTION OF ANALGESIA IN NEUROPATHIC PAIN” (University Court of the University of Edinburgh, priority 2006, published 2010)

What was measured:
[1] = tested on: rats with chronic constriction injury (CCI) to sciatic nerve; assay: Intrathecal application in CCI rats, behavioural reflex testing (PWL, PWT); assay type: in vivo, rat; details: for effect on contralateral responses / reversal of mechanical reflex sensitisation ipsilateral to CCI / reversal of thermal reflex sensitisation ipsilateral to CCI: 2R,4R-APDC 15 nmol, ACPT-III and AP-4 150 nmol each; for reversal of mechanical reflex sensitisation ipsilateral to CCI / reversal of thermal reflex sensitisation ipsilateral to CCI: 15-30 min post-injection
Protocol: (§1) Pain models were generated under halothane anaesthesia (Zeneca, Cheshire, UK). For the chronic constriction injury (CCI) model of neuropathic pain, four ligatures were tied loosely to constrict the sciatic nerve at mid-thigh level (as described previously^[39]). An inflammatory pain model was generated by injecting 100 μl of Complete Freund's Adjuvant (CFA, Sigma-Aldrich Ltd) into the ventral surface of the right hindpaw^[39]. A model of peripheral demyelination-induced pain was produced by focal application of lysolecithin to the sciatic nerve^[40]. Peak behavioural sensitisation was observed post-surgically between days 10-16 for CCI, 1-3 for CFA, and 7-14 for lysolecithin, when pharmacological and electrophysiological experiments and tissue removal were conducted.
(§2) Thermal sensitivity was assessed by measuring paw withdrawal latency (PWL, s) in response to a noxious thermal stimulus (Hargreaves' thermal stimulator, Linton Instrumentation, Diss, UK) directed to the hindpaw mid-plantar glabrous surface. Mechanical sensitivity was recorded as the paw withdrawal threshold (PWT, mN/mm^2) to calibrated von Frey filaments (Stoelting, Ill., US), as previously described^[39]. Sensitivity to noxious cold was assessed by placing animals in a waterbath with an aluminium floor containing 1 cm deep 4° C. water and counting the time the paw was held suspended over a 20 s period.
The following drugs were applied intrathecally in a 50 μl volume of saline-based vehicle at 37° C.: icilin (2.5-200 μM in saline with 0.2% dimethylformamide, DMF), LY 341495 (100 μM in saline), UBP 1112 (200 μM in saline), 2R,4R-APDC ((2R, 4R)-4-aminopyrrolidine-2,4-dicarboxylate), 300 μM in saline), ACPT-III ((1R,3R,4S)-1-aminocyclopentane-1,3,4-tricarboxylic acid), 3 mM in saline), AP-4, ((L-(1)-2-amino-4-phosphonobutyric acid), 3 mM in saline), naloxone (0.5 mM in saline), NMDA (75 μM in saline) and ACPC (1-aminocyclopropanecarboxylic acid, 15 μM in saline) (Tocris Cookson, Bristol, UK), (−)-menthol (1R,2S,5R-(−)-menthol, 4 mM in saline), cinnamaldehyde (1.5 mM in saline) and Ruthenium Red (5 μM in saline) (Sigma-Aldrich Co. Ltd, UK) and allicin (0.5 mM in saline with 0.5% DMF) and diallyl disulphide (DADS, 1 mM in saline with 0.5% DMF) (LKT Laboratories Inc., St Paul, Minn., USA). Drugs were injected into the L5/6 intrathecal space under brief halothane anaesthesia, using a 25-gauge needle microsyringe (BD Biosciences, Oxford, UK), as described previously^[39] in animals that were at peak levels of behavioural sensitisation. Behavioural reflex testing commenced 15 min following injection to allow recovery from anaesthesia^[40,41,42] and continued every 5 min thereafter until readings returned to baseline levels (n=6 in each case). We, and others^[40,41,42] find complete recovery from anaesthetic by 15 minutes. All appropriate controls were carried out to eliminate the possibility of effects due to vehicle or to injection procedure.
The TRPM8 channel activators, icilin and (−)-menthol were tested in CCI and naïve animals. The effects of icilin were additionally assessed in animals with CFA-induced inflammation or with lysolecithin-induced demyelination. Icilin was also co-administered with the μ-opioid receptor antagonist naloxone, the Group II metabotropic glutamate receptor (mGluR) antagonist, LY 341495, or the Group III mGluR antagonist, UBP 1112. The effects of these antagonists alone as well as effects of the Group II mGluR agonist, 2R,4R-APDC and the Group III mGluR agonists, ACPT-III and AP-4, were assessed in CCI animals. The TRPA1 channel activator, cinnamaldehyde, alone and with icilin, was tested in CCI animals and in naïve animals. Further TRPA1 channel activators, allicin and diallyl disulphide were assessed in naïve animals. Both icilin and cinnamaldehyde effects in CCI animals were also investigated in the additional presence of Ruthenium Red.

[2] = tested on: rats with chronic constriction injury (CCI) to sciatic nerve; assay: Topical application to paws of CCI rats, behavioural reflex testing (thermal PWL, mechanical PWT); assay type: in vivo, rat; details: for analgesia, thermal hyperalgesia (Hargreaves' test): 30 μM topical, CCI model; for reversal of sensitised responses: topical, (−)-menthol 4 mM, isomenthol and (+)-menthol 8 mM and 16 mM
Protocol: as §1, §2
Icilin was applied at concentrations of 2.5-500 μM (in water with 0.2% DMF), by placing CCI or naïve rats unrestrained for 5 min in a 1 cm deep waterbath (sufficient to cover paws), which was thermostatically controlled to a temperature of 30° C., or by very lightly anaesthetising rats and immersing hindpaws in small tubes containing 5 ml icilin (500 μM-5 mM, with a vehicle of 45% dimethylformamide in 0.2% aqueous Tween 80) for 5 min, followed by sensory testing for 60-80 mins. The effects of (−)-menthol and its stereoisomers isomenthol (1S,2R,5R-menthol,) and (+)-menthol (1S,2R,5S(+)-menthol) (4-16 mM in 80% ethanol) were also assessed. Relevant vehicles were always assessed in similar experiments. As a contrast, the effect of cinnamaldehyde (1.5 mM in water) and the effect of cinnamaldehyde with additional icilin (80 μM in water with 0.2% DMF) were assessed in naïve animals. The effects of icilin (80 μM) were further assessed in CCI animals that had undergone antisense and mis-sense treatment for knockdown of TRPM8 or immediately following intrathecal injection of either LY 341495 or UBP 1112. […] The effects of brief paw immersion at different temperatures (10-22° C. for 5 min) on CCI rats were assessed by mechanical testing. The effects of intrathecal LY 341495 or UBP 1112 on the reversal of ipsilateral sensitisation in CCI following a 16° C. cool challenge for 5 min were measured. Reflex testing commenced 5 minutes following challenge, unless animals had been anaesthetised, in which case 15 minutes was allowed for recovery. Six replicate animals were tested in all pharmacological experiments.
Antisense and mis-sense oligonucleotides were 22-mers with phosphorothioate bonds at the last two positions at 5′ and 3′ ends (MWG Biotech, Ebersberg, Germany). Antisense extended from base −10 to base +12 relative to the start of the open reading frame for the rat TRPM8 gene: 5′ C*T*CGAAGGACATCTTGCCGT*G*G 3′, where * represents phosphorothioate linkages. Mis-sense was designed with 4 inversions of C/G or A/T as appropriate at residues 3, 11, 14 and 22, preserving overall G/C content. BLAST searches of both oligonucleotides indicated no significant complementarity to any known gene sequence. 14-day or 7-day osmotic minipumps (for CCI experiments or naïve electrophysiology experiments respectively—Alzet Minipump, models 2002, 2001; Charles River, UK) containing oligonucleotides (1 μg/μl in sterile saline) were connected to canulae inserted under the dura of the spinal cord to level L5/6 and produced a predicted infusion rate of 0.5 μl/h. […]

Structure (SMILES) | effect on contralateral responses ([1]; intrathecal) | reversal of mechanical reflex sensitisation ipsilateral to CCI ([1]; intrathecal) | reversal of thermal reflex sensitisation ipsilateral to CCI ([1]; intrathecal) | also measured
C=CCN1CC[C@]23c4c5ccc(O)c4O[C@H]2C(=O)CC[C@@]3(O)[C@H]1C5 [naloxone] | – | – | – | effect on icilin analgesia ([1]; naloxone 25 nmol intrathecal co-administration with icilin): had no effect
N.N.N.N.N.N.N.N.N.N.N.N.N.N.[Cl-].[Cl-].[Cl-].[Cl-].[Cl-].[Cl-].[O-2].[O-2].[Ru+3].[Ru+3].[Ru+4] [Ruthenium Red] | – | – | – | effect on analgesic effect of intrathecally-injected icilin ([1]; Ruthenium Red 0.25 nmol with icilin 10 nmol): unaffected; effect on sensitising effects of cinnamaldehyde ([1]; co-injection of Ruthenium Red 0.25 nmol with cinnamaldehyde 75 nmol, intrathecal): prevented
N[C@]1(C(=O)O)C[C@H](C(=O)O)[C@H](C(=O)O)C1 [ACPT-III, (1R,3R,4S)-1-aminocyclopentane-1,3,4-tricarboxylic acid] | no effects contralaterally | 65.7±11.4% | 83.6±6.3% | –
COc1ccc(NC(=O)C2CC(C)CCC2C(C)C)cc1 (stereo not shown) [WS-12, 2-isopropyl-5-methyl-cyclohexanecarboxylic acid (4-methoxyphenyl)amide] | – | – | – | analgesia, thermal hyperalgesia (Hargreaves' test) [2]: causes analgesia
N[C@@H](CCP(=O)(O)O)C(=O)O [AP-4, L-(1)-2-amino-4-phosphonobutyric acid] | no effects contralaterally | 60.7±8.0% | 60.8±6.7% | –
COc1ccccc1N1CC=C(c2cccc([N+](=O)[O-])c2)NC1=O [methoxy-icilin, 1-(2′-methoxyphenyl)-4-(3″-nitrophenyl)-1,2,3,6-tetrahydropyrimidin-2-one] | – | – | – | analgesia, thermal hyperalgesia (Hargreaves' test) [2]: causes analgesia
CC1CC[C@H](C(C)C)[C@@H](O)C1 (single isomer, unassigned; (+)) [(+)-menthol] | – | – | – | reversal of sensitised responses [2]: produced reversal of sensitised responses
N[C@@]1(C(=O)O)CN[C@@H](C(=O)O)C1 [2R,4R-APDC, (2R, 4R)-4-aminopyrrolidine-2,4-dicarboxylate] | no effect on contralateral responses | 56.0±10.9% | 72.1±6.4% | –
CC(C)[C@H]1CC[C@@H](C)C[C@@H]1O [isomenthol, 1S,2R,5R-menthol] | – | – | – | reversal of sensitised responses [2]: produced reversal of sensitised responses
